The results in this text go back to patent publication US10106556B2, “Heterocyclic compound” (TAKEDA PHARMACEUTICAL COMPANY LIMITED, priority 2015, dated 2018).

The target of the test is T1, His-hMAGL (recombinant polyhistidine tagged human MAGL protein) (Homo sapiens, UniProt Q99685).
T1 construct: made in house; host or cells: E. coli BL21(DE3)
T1 sequence (Q99685 1-303): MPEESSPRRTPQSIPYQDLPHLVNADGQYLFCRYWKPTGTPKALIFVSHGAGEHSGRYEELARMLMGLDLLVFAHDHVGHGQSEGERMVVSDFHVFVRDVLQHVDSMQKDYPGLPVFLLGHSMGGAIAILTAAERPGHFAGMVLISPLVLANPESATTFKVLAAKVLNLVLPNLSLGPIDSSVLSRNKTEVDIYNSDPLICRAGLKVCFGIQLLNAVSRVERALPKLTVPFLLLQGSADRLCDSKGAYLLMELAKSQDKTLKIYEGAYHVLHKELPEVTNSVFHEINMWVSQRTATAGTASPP
In words: Measurement of MAGL inhibitory activity (arachidonic acid production from 2-arachidonylglycerol, RapidFire-mass spectrometry). It is filed as biochemical. The note with it: MAGL inhibitory rate at 10 μM test compound; 60 min preincubation with His-hMAGL, 2-arachidonylglycerol substrate, 10 min reaction at room temperature. How it is done: Furthermore, acetonitrile (50 μL) containing 3 μM arachidonic acid-d8 (Cayman Chemical Company) was added and the mixture was stirred.
The amount of arachidonic acid in the obtained enzyme reaction mixture was calculated by measuring by RapidFire-mass spectrometry and correcting by the amount of arachidonic acid-d8. High Throughput online solid phase extraction was performed using RapidFire 300™ system (Agilent Technologies, Inc.). Samples were loaded on SPE C4 cartridge (Agilent Technologies, Inc.) and desalted with 0.2 (v/v) % acetic acid (Wako Pure Chemical Industries, Ltd.) in ultrapure water/acetonitrile (70/30, v/v) at a flow rate of 1.5 mL/min, eluted at a flow rate of 0.5 mL/min with 0.2 (v/v) % acetic acid dissolved in acetonitrile/ultrapure water (90/10, v/v), and injected into the mass spectrometry part. The injection needle was washed with ultrapure water (500 millisecond) and acetonitrile (500 millisecond) to minimize carry-over. […] The RapidFire300 system was controlled by RapidFire UI software version 3.6 (Agilent Technologies, Inc.).
The mass spectrometry of the resultant product was performed using API4000™ triple quadrupole mass spectrometer (AB SCIEX) equipped with an electrospray ion sauce (TurboIon Spray™) in a negative selected reaction monitoring (SRM) mode. The conditions of SRM are shown below. The parameters of the instrument were optimized as follows: capillary temperature 600° C., ion spray voltage −4.5 kV, collision gas 8, curtain gas 15 psi, ion source gas 1 60 psi, ion source gas 2 60 psi. The mass spectrometer was controlled by Analyst™ software version 1.5.1 (AB SCIEX). The peak area integration was analyzed using RapidFire integrator software version 3.6 (Agilent Technologies, Inc.).
MAGL inhibitory rate (%) was calculated according to the following calculation formula. (1−(arachidonic acid production amount of test compound addition group−arachidonic acid production amount of enzyme−free group)÷(arachidonic acid production amount of test compound-free group−arachidonic acid production amount of enzyme-free group))×100
Regarding `O=C1COc2ncc(C(=O)N3CCC(COc4ccc(Cl)cc4Cl)CC3)cc2N1` [Example 17, 7-((4-((2,4-dichlorophenoxy)methyl)piperidin-1-yl)carbonyl)-1H-pyrido[2,3-b][1,4]oxazin-2 (3H)-one], the inhibition at 10 µM was 101%. With `O=C1COc2ccc(C(=O)N3CCC(COc4ccc(Cl)nc4Cl)CC3)cc2N1` [Example 41, 6-((4-(((2,6-dichloropyridin-3-yl)oxy)methyl)piperidin-1-yl)carbonyl)-2H-1,4-benzoxazin-3(4H)-one] the figure was 103%. With `O=C1COc2cc(F)c(C(=O)N3CC(COc4ccc(Cl)c(Cl)c4)C3)cc2N1` [Example 124, 6-((3-((3,4-dichlorophenoxy)methyl)azetidin-1-yl)carbonyl)-7-fluoro-2H-1,4-benzoxazin-3(4H)-one] the figure was 100%; with `CC(C)(C)c1ccc(OCC2CN(C(=O)c3cc4c(cc3F)OCC(=O)N4)C2)c(Cl)c1` [Example 118, 6-((3-((4-tert-butyl-2-chlorophenoxy)methyl)azetidin-1-yl)carbonyl)-7-fluoro-2H-1,4-benzoxazin-3(4H)-one], 99%.

Consider `O=C1COc2ccc(C(=O)N3CCC(COc4ccccc4OC(F)(F)F)CC3)cc2N1` [Example 53, 6-((4-((2-(trifluoromethoxy)phenoxy)methyl)piperidin-1-yl)carbonyl)-2H-1,4-benzoxazin-3(4H)-one], for which the inhibition at 10 µM came to 96%.

For `N#Cc1ccccc1OCC1CCN(C(=O)c2ccc3c(c2)NC(=O)CO3)CC1` [Example 30, 2-((1-((3-oxo-3,4-dihydro-2H-1,4-benzoxazin-6-yl)carbonyl)piperidin-4-yl)methoxy)benzonitriie], the inhibition at 10 µM was found to be 98%.

As for `Cc1nc2ccc(OCC3CN(C(=O)c4cc5c(cc4F)OCC(=O)N5)C3)cc2s1` [Example 152, 7-fluoro-6-((3-(((2-methyl-1,3-benzothiazol-6-yl)oxy)methyl)azetidin-1-yl)carbonyl)-2H-1,4-benzoxazin-3(4H)-one], the inhibition at 10 µM was determined as 101%. Regarding `Cc1cc(-c2cc(Cl)ccc2OCC2CN(C(=O)c3cc4c(cc3F)OCC(=O)N4)C2)n(C)n1` [Example 223, 6-((3-((4-chloro-2-(1,3-dimethyl-1H-pyrazol-5-yl)phenoxy)methyl)azetidin-1-yl)carbonyl)-7-fluoro-2H-1,4-benzoxazin-3(4H)-one], the inhibition at 10 µM was 102%. Under `Cc1nc2ccc(OCC3CN(C(=O)c4cc5c(cc4F)OCC(=O)N5)C3)cc2o1` [Example 153, 7-fluoro-6-((3-(((2-methyl-1,3-benzoxazol-6-yl)oxy)methyl)azetidin-1-yl)carbonyl)-2H-1,4-benzoxazin-3(4H)-one] stands 100%. Under `O=C1COc2cc(Cl)c(C(=O)N3CC(COc4ccc(F)cc4Cl)C3)cc2N1` [Example 87, 7-chloro-6-((3-((2-chloro-4-fluorophenoxy)methyl)azetidin-1-yl)carbonyl)-2H-1,4-benzoxazin-3(4H)-one] stands 102%; under `CC(C)c1ccc(OCC2CN(C(=O)c3cc4c(cc3F)OCC(=O)N4)C2)cc1` [Example 159, 7-fluoro-6-((3-((4-isopropylphenoxy)methyl)azetidin-1-yl)carbonyl)-2H-1,4-benzoxazin-3(4H)-one], 103%; under `O=C1COc2cc(F)c(C(=O)N3CC(COc4ccc(-c5ccc6c(c5)CCO6)cc4F)C3)cc2N1` [Example 257, 6-((3-((4-(2,3-dihydro-1-benzofuran-5-yl)-2-fluorophenoxy)methyl)azetidin-1-yl)carbonyl)-7-fluoro-2H-1,4-benzoxazin-3(4H)-one], 99%. Under `O=C1COc2ccc(C(=O)N3CCC(COc4ccc5[nH]ncc5c4)CC3)cc2N1` [Example 61, 6-((4-((1H-indazol-5-yloxy)methyl)piperidin-1-yl)carbonyl)-2H-1,4-benzoxazin-3(4H)-one] stands 94%. With `O=C1COc2cc(F)c(C(=O)N3CC(COc4cccc5[nH]ncc45)C3)cc2N1` [Example 107, 7-fluoro-6-((3-((1H-indazol-4-yloxy)methyl)azetidin-1-yl)carbonyl)-2H-1,4-benzoxazin-3(4H)-one], the inhibition at 10 µM is 101%. Take `CC(Oc1cc(F)cc(F)c1)C1CN(C(=O)c2cc3c(cc2F)OCC(=O)N3)C1` (stereo not drawn) [Example 305, 6-((3-(1-(3,5-difluorophenoxy)ethyl)azetidin-1-yl)carbonyl)-7-fluoro-2H-1,4-benzoxazin-3(4H)-one]: the inhibition at 10 µM was 100%.

On to `O=C1COc2cc(F)c(C(=O)N3CC(COc4ccc(Cl)cc4-c4cccnc4)C3)cc2N1` [Example 192, 6-((3-((4-chloro-2-(pyridin-3-yl)phenoxy)methyl)azetidin-1-yl)carbonyl)-7-fluoro-2H-1,4-benzoxazin-3(4H)-one], for which the inhibition at 10 µM was 99%. Turning to `O=C1COc2cc(F)c(C(=O)N3CC(COc4ccc5cn[nH]c5c4)C3)cc2N1` [Example 157, 7-fluoro-6-((3-((1H-indazol-6-yloxy)methyl)azetidin-1-yl)carbonyl)-2H-1,4-benzoxazin-3(4H)-one], the inhibition at 10 µM was 100%.

Take `O=C1COc2cc(F)c(C(=O)N3CC(COCc4ccccc4)C3)cc2N1` [Example 271, 6-((3-((benzyloxy)methyl)azetidin-1-yl)carbonyl)-7-fluoro-2H-1,4-benzoxazin-3(4H)-one]: the inhibition at 10 µM was 95%.

On to `CC(Oc1cccc(F)c1F)C1CN(C(=O)c2cc3c(cc2F)OCC(=O)N3)C1` (stereo not drawn) [Example 302, 6-((3-(1-(2,3-difluorophenoxy)ethyl)azetidin-1-yl)carbonyl)-7-fluoro-2H-1,4-benzoxazin-3(4H)-one], for which the inhibition at 10 µM is 102%. With `O=C1COc2cc(F)c(C(=O)N3CC(COc4ccc(Oc5ccccc5)cc4)C3)cc2N1` [Example 128, 7-fluoro-6-((3-((4-phenoxyphenoxy)methyl)azetidin-1-yl)carbonyl)-2H-1,4-benzoxazin-3(4H)-one] the figure was 93%; with `CC(Oc1ccc(F)cc1Cl)C1CCN(C(=O)c2cc3c(cc2F)OCC(=O)N3)CC1` (stereo not drawn) [Example 293, 6-((4-(1-(2-chloro-4-fluorophenoxy)ethyl)piperidin-1-yl)carbonyl)-7-fluoro-2H-1,4-benzoxazin-3(4H)-one], 102%; with `O=C1COc2cc(F)c(C(=O)N3CC(COc4cccc(Cl)c4)C3)cc2N1` [Example 112, 6-((3-((3-chlorophenoxy)methyl)azetidin-1-yl)carbonyl)-7-fluoro-2H-1,4-benzoxazin-3(4H)-one], 101%. With `O=C1COc2cc(F)c(C(=O)N3CC(COc4ccc(Cl)cc4-c4ccc(F)cn4)C3)cc2N1` [Example 195, 6-((3-((4-chloro-2-(5-fluoropyridin-2-yl)phenoxy)methyl)azetidin-1-yl)carbonyl)-7-fluoro-2H-1,4-benzoxazin-3(4H)-one] the figure was 101%; with `O=C1COc2cc(F)c(C(=O)N3CC(COc4ccc(Cl)cc4-c4ccc(C(F)(F)F)nc4)C3)cc2N1` [Example 220, 6-((3-((4-chloro-2-(6-(trifluoromethyl)pyridin-3-yl)phenoxy)methyl)azetidin-1-yl)carbonyl)-7-fluoro-2H-1,4-benzoxazin-3(4H)-one], 102%.
